Source: patent publication EP2769974A1, “Novel AMPK activator” (Debiopharm S.A., priority 2013, dated 2014)

Experiments:
[1] = tested on: β1-containing heterotrimers of human recombinant AMPK; assay: AMPK activation assay (phosphorylation of ACC1/1-120 at ser79, AlphaScreen), β1-containing heterotrimers; type: biochemical; conditions: two β1-containing heterotrimers; 100 µM ATP, room temperature, 60 minutes
Protocol: (§1) The compound of formula (I) was assayed in vitro to determine its EC50 against four different AMPK heterotrimers (two containing the β1 subunit and two containing the β2 subunit). AMPK activity was measured by the phosphorylation of the amino-terminal fragment of human acetyl CoA carboxylase-type 1, amino acids 1-120 (ACC1/1-120), at ser79. The fragment was expressed as a biotinylated fusion protein in E.coli. Human rAMPK genes were expressed in insect cells using baculovirus vectors or in the monkey COS7 cell expression systems. The compound was tested in triplicate at each of the following concentrations (µM): 45, 15, 5, 1.67, 0.56, 0.185, 0.06, 0.02 and 0.00685. A positive control comprising AMP (100 uM), and a negative control without enzyme, were used. The enzyme assay was conducted in a 5 µl reaction mixture containing compound of formula (I) at the indicated concentrations in 80 mM HEPES, pH7.0, 160 mM NaCl, 2.5 mM MgCl2, 1mM DTT, 0.05% Tween-20, 100 µM ATP with AMPK at 0.08 ng/µl and ACC1/1-120 at 0.004 ng/µl. […] The reaction mixture was further incubated overnight at RT and analyzed on a Perkin EImer Fusion-Alpha microplate analyzer. The AlphaScreen readout for this assay is based on an excitation with laser-stimulated visible light at 680 nm and emission at 520-620 nm.

[2] = tested on: β2-containing heterotrimers of human recombinant AMPK; assay: AMPK activation assay (phosphorylation of ACC1/1-120 at ser79, AlphaScreen), β2-containing heterotrimers; type: biochemical; conditions: two β2-containing heterotrimers; 100 µM ATP, room temperature, 60 minutes
Protocol: as §1

[3] = tested on: high-fat diet-fed (HFD) mice; assay: Fasting plasma glycemia and insulin sensitivity in high-fat diet-fed (HFD) mice; type: in vivo
Protocol: Six-week-old male C57BI/6 mice were fed a high-fat diet or chow diet for 3 months. Then, HFD mice were treated orally with vehicle (Control HFD) or compound of formula (I) at 60 mg/kg twice daily for 4 weeks. Chow fed mice were treated orally with vehicle alone (Control CD). At completion of this treatment period, mice were fasted for 6 hours and blood glucose levels were assessed with a blood glucosemeter from blood samples collected from the tip of the tail vein.

HFD mice [4] = assay: Hepatic glucose production in HFD mice (hyperinsulinemic-euglycemic clamp); type: in vivo; conditions: for hepatic glucose production: orally 60 mg/kg twice daily for 40 days, under insulin stimulated states, p < 0.001 vs Control HFD, 60 mg/kg
Protocol: Six-week-old male C57BI/6 mice were fed a high-fat diet or chow diet for 3 months. Then, HFD mice were treated orally with vehicle (Control HFD) or compound of formula (I) at 60 mg/kg twice daily for 40 days. Chow fed mice were treated orally with vehicle alone (Control CD). Hepatic glucose production was assessed during a hyperinsulinemic-euglycemic clamp using a 12 mU/kg/min insulin infusion rate. Hyperinsulinemic-euglycemic clamps were performed in chronically cannulated awake free moving mice. Before the start of the clamp procedure mice were fasted for 6 hours. ^3H-glucose alone was then infused for 210 minutes to assess the basal whole body glucose turnover (= hepatic glucose output). The basal procedure started with D-[3-3H]glucose, which was infused (2µL/min, 30µCi/min/kg) for 90 minutes (time -60 to time 30 minutes). An euglycemic hyperinsulinemic 1 step insulin clamp was then performed from 30 minutes to 150 minutes, with a 12mU/kg/min insulin infusion. Glucose (16.5%) infusion rate was adjusted until steady-state blood glucose (120 mg/dL, ± 10 mg/dL) was achieved. Calculations for glucose turnover measurements were made from parameters obtained during the last 60 min of the infusions in steady-state condition, Briefly, the D-[3-3H]glucose-specific activity was calculated by dividing the D-[3-3H]glucose enrichment by the plasma glucose concentration. The whole-body glucose turnover rate was calculated by dividing the rate of D-[3-3H]glucose by the D-[3-3H]glucose plasma-specific activity. For each mouse, the mean values were calculated and averaged with values from mice of the same group.

HFD mice [5] = assay: Hepatic lipids in HFD mice; type: in vivo; conditions: orally 60 mg/Kg twice daily for 40 days, to near control chow values
Protocol: Six-week-old male C57BI/6 mice were fed a high-fat diet or chow diet for 3 months. Then, HFD mice were treated orally with vehicle (Control HFD) or compound of formula (I) at 60 mg/Kg twice daily for 40 days. Chow fed mice were treated orally with vehicle alone (Control CD). At completion of this treatment period, mice were sacrificed and liver collected for determination of triglycerides, cholesterol and free fatty acids (FFA) content. Commercial kits were used to measure the levels of hepatic cholesterol (cholesterol RTU, Biomerieux), triglyceride (TG) (triglyceride PAP 150, Biomerieux), and fatty acid (NEFA-HR (2), Wako Chemicals) levels from liver homogenate. Results were then normalized to the weight of the sample.

HFD hamster = assay: Circulating lipids (FPLC lipoprotein profile) and insulin sensitivity in HFD hamster; type: in vivo
Protocol: Hamsters were fed a control chow diet with normal drinking water or high fat diet with 10% fructose drinking water over 30 days. After 16 days of high-fat diet, two groups of hamsters were treated orally with either vehicle (control HFD) or Compound of formula (I) twice daily for 14 days. Hamsters fed the chow diet were also treated orally for 14 days with vehicle BID (control CD). After the treatment period, hamsters were overnight fasted, blood samples were obtained from the retroorbital plexus. Plasma was immediately isolated by centrifugation and for each group, a 400 µL pool of plasma was made from the individual plasma samples. Lipoproteins were separated by fast performance liquid chromatography (FPLC). FPLC fractions were monitored for cholesterol levels.

[6] = HFD hamsters, orally twice daily for 14 days, FPLC of pooled plasma

EC50 [1]: < 500 nM
EC50 [2]: < 5000 nM
Structure (SMILES): O=C(O)c1c[nH]c2ccc(-c3ccc(-c4c(O)cccc4O)cc3)cc12 [compound of formula (I), 5-(2',6'-dihydroxy-biphenyl-4-yl)-1H-indole-3-carboxylic acid]
decrease of fasting plasma glycemia ([3]; orally 60 mg/kg twice a day): at least 17%
blood glucose ([3]; orally 60 mg/kg twice daily for 4 weeks, fasted for 6 hours, p <0.05 vs Control HFD): significantly decreased
HOMA-IR decrease (insulin sensitivity) ([3]; results not shown): 43%
decrease of hepatic glucose production (HFD mice [4]; orally 60 mg/kg twice a day, basal state): at least 34%
hepatic glucose production (HFD mice [4]): normalized
hepatic glucose production (HFD mice [4]; listed as Compound of formula (I)): blunted
liver lipids content (HFD mice [5]): reduced
HOMA-IR decrease (insulin sensitivity) (HFD hamster; HFD hamster, results not shown): 37%
HDL total cholesterol levels (HFD hamster; [6]): increased
LDL total cholesterol levels (HFD hamster; [6]): reduced
VLDL total cholesterol levels (HFD hamster; [6]): reduced
